Assay: Saturation concentration of agents on gold nanoparticles (UV-Visible absorbance)
Type: physicochemical
Experimental: The individual saturation concentrations of a monoclonal anti-VEGF antibody agent and a gemcitabine agent to gold nanoparticles were determined in the following manner. Eight tubes containing 1 ml of gold nanoparticles each were incubated with increasing concentrations of the anti-VEGF antibody for 30 minutes, followed by an aggregation assay involving incubation with 100 μl of a 10% NaCl solution. Approximately 15 min. after the addition of the NaCl solution, the UV-Visible spectra were recorded using a Shimadzu model system (UV2401 PC), and the saturation concentration of the antibody was determined.
The attachment of gemcitabine to the gold nanoparticles and the determination of its saturation concentration were performed similarly.
The saturation concentration of gemcitabine on the gold nanoparticles was determined in a similar manner. Gold nanoparticles were incubated with different concentrations of gemcitabine for 30 min., and their UV-Visible spectra were recorded. […] This shift in Ymax value with a concomitant decrease in absorbance and a broadening of the spectra may be attributed to the aggregation of gold nanoparticles upon the addition of gemcitabine beyond the 20 μg limit. […]

Nc1ccn([C@@H]2O[C@H](CO)[C@@H](O)C2(F)F)c(=O)n1 [gemcitabine]
saturation concentration of gemcitabine on gold nanoparticles (absorbance maximum) (30 min incubation, UV-Visible spectra): 20 µg

NCCc1ccc(O)c(O)c1 [dopamine]
saturation concentration of dopamine on gold nanoparticles (surface plasmon resonance band, UV-visible spectroscopy): ~30 µg/mL

Reference: patent publication US20060222595A1, “Nanoparticles for therapeutic and diagnostic applications” (priority 2005, published 2006)
